These results are taken from US6974664B2, “Screening method for cancer therapeutics and stable antitumor drug” (The Board of Trustees of the Leland Stanford University, priority 2000, dated 2005).

pIC50, pKi: −log10 of the molar value.

The test system of series [1] is mouse B cell lymphoma cell line LYAS. The series can be described thus: FACS staining for annexin V, LYAS cells. It counts as cell-based. Conditions: 6 hours incubation, read-out: IC50, percentage of annexin V+ cells. How it is done:
(§1) Activity was measured by FACS staining for annexin V and by MTT assay.
The mouse B cell lymphoma cell line LYAS was incubated with apoptolidin in a compound of formula 1 for 6 hours. The treating compounds were removed and the cells were stained with annexin V-CY5PE for 15 minutes and washed 3 times. Cells were analyzed on the FACSAN and the percentage of annexin V+ cells was quantified. The IC50 of the compound of formula 1 was 10 μM; the IC50 of apoptolidin was 100 nM.

Series [2] has as its system breast carcinoma cell line MCF-7. As to the kind of experiment: MTT assay, MCF-7 cells. It counts as cell-based. Conditions: Homo sapiens, MCF7; MCF-7, 120 hours. How it is done:
as §1
The breast carcinoma cell line MCF-7 was tested in 96-well plates in triplicate. Dilutions of apoptolidin or the compound of formula 1 were added to the wells for 120 hours. MTT was then added to the wells at a final concentration of 0.5 mg/ml. The supernatant was removed and the crystals dissolved in 40 mM HCl and isopropanol. The plates were scanned on a microplate reader at 595 nm. The IC50 of the compound of formula 1 was 10 μM; the IC50 of apoptolidin was 90 nM.

A short description of series [3]: Stability by analytical reverse phase HPLC at pH 4, 7 and 10. It counts as physicochemical. Conditions: for time structure retained: pH 4; for time remained intact / decomposition: pH 10. As to the method: Stability was monitored by an analytical reverse phase HBLC using a Beckman C18 column (4.6 mm×25 cm). Stability was analyzed in this manner at pH 4, 7 and 10, both for apoptolidin and the compound of formula 1. At pH 4, apoptolidin retained its structure for 24 hours; the compound of formula 1 for at least 28 hours when observation was terminated.

Series [4] deals with mouse B cell lymphoma cell line LYAS. Conditions: FACS staining for Annexin V; cited from earlier work.
Series [5] has as its system breast carcinoma cell line MCF-7. Conditions: MCF-7, MTT assay; cited from earlier work. (Tetrazolium dyes change colour on reduction, which living cells bring about.)
Another series relates to Jurkat cells. As to the kind of experiment: Sensitization of Jurkat cells to apoptolidin by oxamate or deoxyglucose. It counts as cell-based. How it is done:
For example, Jurkat cells planted at 40,000 cells per well and treated with 1 μM of apoptolidin show no cell death over a time period of 20 hours. […] Treatment with these amounts of oxamate alone has no effect. (Oxamate is a known inhibitor of lactate dehydrogenase; which converts pyruvate to lactate.)
Another compound known to repress the flow of glucose through the fermentative pathway is deoxyglucose which competes with glucose for this pathway but results in a dead end. […] Deoxyglucose alone at the control concentrations has no effect.

The next series deals with LYas cells. The series can be described thus: % killing of LYas cells with apoptolidin or oligomycin plus oxamate. It counts as cell-based, murine. Conditions: 7 hours; for lowest concentration showing substantial killing in presence of oxamate: LYas cells 1×10^6 ml, with oxamate. As to the method:
Similar results are shown in FIG. 8 for LYas cells, where cells planted at 1×10^6 ml were assessed for % killing after 7 hours when treated with various concentrations of apoptolidin or oligomycin in the presence of various concentrations of oxamate. When no apoptosis drugs are administered, there is no effect of oxamate up to a concentration of 15 mM. However, at concentrations where the oxamate alone has no effect, both oligomycin and apoptolidin were able to show substantial killing at concentrations as low as 0.1 mM.

The next series relates to PARP. As to the kind of experiment: PARP cleavage in the presence of apoptolidin. It counts as cell-based. Conditions: 1 μM apoptolidin, within 6 hours. An excerpt: Among those cells which have high ATP requirements, aerobic cells are sensitive, while anaerobic cells are resistant.
Series [6] has as its target T1, yeast mitochondrial FOF1-ATP synthase (Saccharomyces cerevisiae, UniProt P00830+P07251+P38077+P61829).
T1 construct: 20 μg of yeast mitochondrial protein (as measured by the Lowry method) was added to reaction buffer; endogenous in cells; host or cells: Crude mitochondria from Saccharomyces cerevisiae strain DBY7286 grown on lactate
The series can be described thus: Yeast mitochondrial ATPase activity assay. It counts as biochemical. Conditions: for consumption of NADH: 80 μM oligomycin or 87 μM apoptolidin, 20 μg yeast mitochondrial protein; for pKi: yeast mitochondria, pH 8, read-out: calculated Ki, ATPase activity. How it is done:
The assay is that described in Example 4 hereinbelow where the combination of pyruvate kinase and LDH effect conversion of phosphoenol pyruvate to lactate in the presence of ATP and NADH. With increasing concentrations of either drug, the specific activity of the enzyme rapidly declines. The calculated Ki values for oligomycin and apoptolidin are 1 μM and 5 μM respectively. Although the observed Ki for apoptolidin is five-fold higher than that for oligomycin, this may be an underestimate of the potency of apoptolidin. […] Mitochondrial ATPase activity assays are typically performed at pH 8. Thus, the true Ki for apoptolidin may be lower than that observed herein and accounts for the observation the IC50 values for apoptolidin against both LYas as well as MCF7 cells are substantially lower than the measured Ki against mitochondrial ATPase. This difference might be explained by a preference for mammalian ATPase over yeast ATPase, or by the possibility that apoptosis via this pathway is a dominant phenotype.
Crude yeast mitochondria were isolated from a lactate grown Saccharomyces cerevisiae strain DBY7286 (mata, ura-/-) according to published procedures. Briefly, 2 L shake flasks of yeast were grown up on semisynthetic lactate medium at 30° C. with vigorous shaking to an OD600 of 3. Cells were collected at 4000 g and the wet weight of the pellet was determined. Cells were converted to spheroplasts by a 30 minute incubation at 30° C. with 2.5 mg Zymolyase 20T (ICN Biochemicals) per gram of packed cells in a volume of 2 ml per gram of packed cells in Buffer A (1.2 M sorbitol, 20 mM potassium phosphate, pH 7.4). The Zymolyase 20T was washed out twice by centrifugation at 4000 g and resuspension in Buffer A. The spheroplasts were then resuspended in Buffer B (0.6 M sorbitol, 20 mM K^+ MES, pH6.0) with 0.5 mM PMSF and homogenized in a 40 ml glass Dounce homogenizer using 15 strokes with a tight-fitting pestle. The unbroken spheroplasts were collected by centrifugation at 1500 g and rehomogenized with 15 strokes in Buffer B plus PMSF. […] The protein concentration was determined by the Lowry assay and the dark brown mitochondria were resuspended in Buffer C (0.6 M sorbitol, 20 mM HEPES, pH 7.4). Mitochondria were prepared fresh and ATPase activity was measured within 6 hours.
Mitochondrial ATPase activity was measured by standard methods. Briefly, 20 μg of yeast mitochondrial protein (as measured by the Lowry method) was added to reaction buffer containing 50 mM Tris (pH 8.0), 1 mM ATP, 0.3 mM NADH, 3.3 mM MgCl2, 2 μg/ml antimycin A, 1 mM phosphoenol pyruvate, 5 U/ml lactate dehydrogenase, and 2.5 U/ml pyruvate kinase at 28° C. […]

As usually defined, the pIC50 is the IC50 on a negative log10 scale, so that one unit is a factor of ten. A word on the half-life: it is the time needed for the level to fall by half in the phase considered. The pKi is the Ki on a negative log10 scale, so that one unit is a factor of ten.

Take `COC[C@H](O)C[C@H]1O[C@@](O)([C@H](O)[C@@H]2C[C@H](OC)[C@@H](O)CC/C=C(C)/C=C/[C@@H](O[C@@H]3OC(C)[C@H](OC)[C@@H](O)[C@@H]3O)[C@H](C)/C=C(C)/C=C(C)/C=C(\C)C(=O)O2)C(C)=C[C@H]1C` (stereo partly drawn) [compound of formula 1]: the pIC50 in series [1] and in series [2] was 5.00 each time. In [3], the time structure retained entry is on record as “at least 28 hours”. Moreover, the time remained intact entry in series [3] (pH 7) is “at least 28 hours”. The “time remained intact / decomposition” value in [3] is given as “at least 28 hours”. For the same molecule, the “cytotoxic activity relative to apoptolidin” value in series [4] and in series [5] was 1% throughout.

With `NC(=O)C(=O)O` [oxamate], the “effect on cell death, enhancer alone” value in the series on Jurkat cells (oxamate alone, 5 mM and 50 mM) is listed as “no effect”. For the same molecule, the “effect on % killing, oxamate alone” value in the series on LYas cells (no apoptosis drug, up to 15 mM oxamate) is listed as “no effect”.

Regarding `COC[C@@H](C[C@H]1O[C@@](O)([C@H](O)[C@@H]2C[C@H](OC)[C@@H](O)CC/C=C(C)/C=C/[C@@H](O[C@@H]3O[C@@H](C)[C@H](OC)[C@@H](O)[C@@H]3O)[C@H](C)/C=C(C)/C=C(C)/C=C(\C)C(=O)O2)[C@H](C)[C@@H](O)[C@H]1C)OC1C[C@](C)(O)[C@@H](O[C@H]2C[C@@H](OC)[C@H](O)[C@@H](C)O2)[C@H](C)O1` (stereo partly drawn) [apoptolidin], the pIC50 in series [1] is 7.00. This molecule also showed a negative-log IC50 (pIC50) in series [2] of 7.05. For the same molecule, in the series with PARP, the PARP cleavage entry was “completely cleaved”. Further, the cell death result in the series on Jurkat cells (1 μM apoptolidin + 5 mM oxamate) is given as “does not dramatically change this result”. For the same molecule, the “time at which cell death begins” value with Jurkat cells (1 μM apoptolidin + 50 mM oxamate) is given as “four”. Also, the cells killed with Jurkat cells (1 μM apoptolidin + 50 mM oxamate, by 20 hours) is given as 95%. In addition, the cell death entry in the series with Jurkat cells (1 μM apoptolidin alone, 40,000 cells per well, over 20 hours) is “no cell death”. For the same molecule, the half-life in [3] (buffer, pH 7, read-out: decomposition half-life (converted)) was approximately 5 h. Further, in series [3], the time structure retained came to 24 h and the “time remained intact / decomposition” value is recorded as “decomposed almost immediately”. Further, in the series with LYas cells, the “lowest concentration showing substantial killing in presence of oxamate” value worked out at 0.1 mM. In [6], the “consumption of NADH” value is “dramatically reduced” and the negative logarithm of the Ki (pKi) is 5.30.

`O=CC[C@@H](O)[C@H](O)[C@H](O)CO` [deoxyglucose, 2-deoxyglucose]: the “effect on cell death, enhancer alone” value in the series on Jurkat cells (deoxyglucose alone at the control concentrations) is “no effect”. Moreover, in the series on Jurkat cells (with 1 μM apoptolidin), the “lowest deoxyglucose concentration at which apoptolidin effects apoptosis” value is on record as 5 mM.

With `CC[C@H]1/C=C/C=C/C[C@@H](C)[C@H](O)[C@@](C)(O)C(=O)[C@@H](C)[C@H](O)[C@@H](C)C(=O)[C@@H](C)[C@H](O)[C@@H](C)/C=C/C(=O)O[C@@H]2[C@H](C)[C@H](CC1)O[C@]1(CC[C@H](C)[C@H](C[C@@H](C)O)O1)[C@H]2C` [oligomycin], the “lowest concentration showing substantial killing in presence of oxamate” value in the series with LYas cells amounted to 0.1 mM. Further, in series [6], the “consumption of NADH” value is reported as “dramatically reduced” and the pKi was 6.00.
